Measured values published in US8193210B2, “Camptothecin derivatives with antitumor activity” (Indena S.p.A., priority 2006, dated 2012).
Converted amounts (≈) assume the structure as drawn. Where two headings read alike, the source gives them in different places.

How the values were obtained:
[1] = target: T1, human recombinant enzyme (full length top1) (Homo sapiens, UniProt P11387); assay: Topoisomerase-I-dependent DNA rupture assay, persistence of DNA damage; format: biochemical; settings: 30 min incubation with 10 μM drug
T1 construct: the human recombinant enzyme (full length top1)
T1 sequence (P11387 1-765): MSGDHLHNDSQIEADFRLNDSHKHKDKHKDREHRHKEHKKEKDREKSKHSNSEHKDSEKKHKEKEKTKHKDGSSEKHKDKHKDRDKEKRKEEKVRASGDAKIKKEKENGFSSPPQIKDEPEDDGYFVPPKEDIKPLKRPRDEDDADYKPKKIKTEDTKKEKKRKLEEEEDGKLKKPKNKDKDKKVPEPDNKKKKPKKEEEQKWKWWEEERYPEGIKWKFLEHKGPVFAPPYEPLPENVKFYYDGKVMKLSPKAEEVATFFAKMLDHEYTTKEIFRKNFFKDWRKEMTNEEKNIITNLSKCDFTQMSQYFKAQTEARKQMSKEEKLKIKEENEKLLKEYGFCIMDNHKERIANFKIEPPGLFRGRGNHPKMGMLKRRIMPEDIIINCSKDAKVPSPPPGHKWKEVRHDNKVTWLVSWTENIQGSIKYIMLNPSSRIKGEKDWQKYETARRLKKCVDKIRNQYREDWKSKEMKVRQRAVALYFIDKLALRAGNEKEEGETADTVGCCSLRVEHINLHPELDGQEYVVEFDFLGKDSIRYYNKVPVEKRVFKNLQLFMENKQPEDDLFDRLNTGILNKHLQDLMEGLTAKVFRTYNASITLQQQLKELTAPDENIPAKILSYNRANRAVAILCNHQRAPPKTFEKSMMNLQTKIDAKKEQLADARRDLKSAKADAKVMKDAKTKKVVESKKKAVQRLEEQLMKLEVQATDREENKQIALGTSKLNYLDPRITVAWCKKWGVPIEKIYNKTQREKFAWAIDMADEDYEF

[2] = system: NCI-H460 cell line (NSCL cancer); assay: Cell growth inhibition assay (cytotoxicity, cell count); format: cell-based, human; settings: for IC50: Homo sapiens; for NCl-H460 IC50 (μg/mL) Cell count: H460 cells
Method: The compounds of the invention were tested in a cytotoxicity assay on a wide spectrum of tumour cells. By way of example, the cytotoxicity data on the NCI-H460 cell line (NSCL cancer) concerning two compounds of formula (I) are reported, using camptothecin and the drugs Topotecan and SN-38 as references:
H460 Cells from human large cell lung tumor were cultured in RPMI-1640 medium containing 10% foetal calf serum. Cell sensitivity was determined by cell growth inhibition assay after 1 or 72 hr drug exposure. The cells in logarithmic growth were collected and seeded in duplicate in 6-wells plates. […] IC50 is defined as the concentration inhibiting by 50% cell growth compared with untreated controls growth.

[3] = Time 0 min after adding 0.6 M NaCl
[4] = NCI-H460, read-out: NCl-H460 IC50 (μg/mL) Cell count, H460 cells, 1 or 72 hr drug exposure, counted with Coulter counter 72 hours after exposure
[5] = 1 or 72 hr drug exposure, counted with Coulter counter 72 hours after exposure
[6] = NCI-H460, H460 cells, 1 or 72 hr drug exposure, counted with Coulter counter 72 hours after exposure, read-out: NCl-H460 IC50 (μg/mL) Cell count

Structure (SMILES): CC[C@@]1(O)C(=O)OCc2c1cc1n(c2=O)C(F)c2cc3ccccc3nc2-1 (single isomer, unassigned) [5-F-camptothecin Isomer 1, 5-F-camptothecin 1st diastereomer]
- Persistence of DNA Damage (%) [1, 3]: 100%
- Persistence of DNA Damage (%) ([1]; Time 1 min after adding 0.6 M NaCl, listed as 5-F CPT isomers 1): 18%
- Persistence of DNA Damage (%) ([1]; Time 5 min after adding 0.6 M NaCl, listed as 5-F CPT isomers 1): 18%
- Persistence of DNA Damage (%) ([1]; Time 10 min after adding 0.6 M NaCl, listed as 5-F CPT isomers 1): 10%
- IC50 [2, 4]: 20.6 µg/mL (≈ 56.2 µM)

Structure (SMILES): CC[C@@]1(O)C(=O)OCc2c1cc1n(c2=O)C(F)c2cc3ccccc3nc2-1 (single isomer, unassigned) [5-F-camptothecin Isomer 2, 5-F-camptothecin 2nd diastereomer]
- Persistence of DNA Damage (%) [1, 3]: 100%
- Persistence of DNA Damage (%) ([1]; Time 1 min after adding 0.6 M NaCl, listed as 5-F CPT isomers 2): 10%
- Persistence of DNA Damage (%) ([1]; Time 5 min after adding 0.6 M NaCl, listed as 5-F CPT isomers 2): 10%
- Persistence of DNA Damage (%) ([1]; Time 10 min after adding 0.6 M NaCl, listed as 5-F CPT isomers 2): 13%
- NCl-H460 IC50 (μg/mL) Cell count [2, 5]: 20 ± 5.1 µg/mL

Structure (SMILES): CC[C@@]1(O)C(=O)OCc2c1cc1n(c2=O)C(N=[N+]=[N-])c2cc3ccccc3nc2-1 (single isomer, unassigned) [5-N3 CPT, 5-N3-camptothecin]
- Persistence of DNA Damage (%) [1, 3]: 100%
- Persistence of DNA Damage (%) ([1]; Time 1 min after adding 0.6 M NaCl): 50%
- Persistence of DNA Damage (%) ([1]; Time 5 min after adding 0.6 M NaCl): 30%
- Persistence of DNA Damage (%) ([1]; Time 10 min after adding 0.6 M NaCl): 15%

Structure (SMILES): CC[C@@]1(O)C(=O)OCc2c1cc1n(c2=O)C(N=[N+]=[N-])c2cc3ccccc3nc2-1 (single isomer, unassigned) [5-N3-camptothecin Isomer 1, 5-N3-camptothecin 1st diastereomer]
- IC50 [2, 4]: 4.18 µg/mL (≈ 10.7 µM)

Structure (SMILES): CC[C@@]1(O)C(=O)OCc2c1cc1n(c2=O)C(N=[N+]=[N-])c2cc3ccccc3nc2-1 (single isomer, unassigned) [5-N3-camptothecin Isomer 2, 5-N3-camptothecin 2nd diastereomer]
- NCl-H460 IC50 (μg/mL) Cell count [2, 5]: 2.59 ± 0.7 µg/mL

Structure (SMILES): CC[C@@]1(O)C(=O)OCc2c1cc1n(c2=O)C(N(NC(=O)OC(C)(C)C)C(=O)OC(C)(C)C)c2cc3ccccc3nc2-1 (single isomer, unassigned) [5-di-tert-butoxycarbonyl-hydrazinocamptothecin Isomer 1, 5-di-t-butoxycarbonylhydrazino-camptothecin 1st diastereomer]
- IC50 [2, 6]: 50 µg/mL (≈ 86.4 µM)

Structure (SMILES): CC[C@@]1(O)C(=O)OCc2c1cc1n(c2=O)C(N(NC(=O)OC(C)(C)C)C(=O)OC(C)(C)C)c2cc3ccccc3nc2-1 (single isomer, unassigned) [5-di-tert-butoxycarbonyl-hydrazinocamptothecin Isomer 2, 5-di-t-butoxycarbonylhydrazino-camptothecin 2nd diastereomer]
- NCl-H460 IC50 (μg/mL) Cell count [2, 5]: > 100 µg/mL

Structure (SMILES): CC[C@@]1(O)C(=O)OCc2c1cc1n(c2=O)C(N)c2cc3ccccc3nc2-1 (stereo partly shown) [5-NH2-camptothecin]
- IC50 [2, 6]: 11 ± 3.1 µg/mL (≈ 30.3 µM)
